molecular target: T1, BRD9 (Homo sapiens, UniProt Q9H8M2); experiment: HiBit Lytic Assay (HiBit DC50, BRD9 degraders of Table 1); assay type: cell-based; details: 11-point half log dose response, NanoLuc signal
T1 sequence (Q9H8M2 1-597): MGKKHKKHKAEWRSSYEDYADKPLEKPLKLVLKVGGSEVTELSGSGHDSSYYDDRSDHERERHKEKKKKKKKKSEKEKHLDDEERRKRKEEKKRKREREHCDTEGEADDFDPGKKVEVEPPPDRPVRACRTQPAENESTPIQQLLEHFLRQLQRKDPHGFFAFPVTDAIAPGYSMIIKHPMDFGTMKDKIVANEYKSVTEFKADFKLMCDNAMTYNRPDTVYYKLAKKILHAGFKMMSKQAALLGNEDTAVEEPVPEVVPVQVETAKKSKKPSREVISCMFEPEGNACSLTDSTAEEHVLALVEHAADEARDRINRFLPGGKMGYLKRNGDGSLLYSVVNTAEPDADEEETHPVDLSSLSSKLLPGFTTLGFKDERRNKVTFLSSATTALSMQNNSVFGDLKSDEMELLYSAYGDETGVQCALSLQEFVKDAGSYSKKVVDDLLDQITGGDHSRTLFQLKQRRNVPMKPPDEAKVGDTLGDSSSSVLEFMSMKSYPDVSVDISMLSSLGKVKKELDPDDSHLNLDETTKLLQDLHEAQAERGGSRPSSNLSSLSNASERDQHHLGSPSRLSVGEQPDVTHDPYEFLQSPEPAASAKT
Procedure: Example 3. HiBit Lytic Assay
• Compound is made at 10 mM, half log dilution, 11 points. • MDR plates can also be ordered from Frontier with same format. • 1. Barcode a 384LDV plate (384-well Low Dead Volume Microplate, Labcyte LP-0200) (Echo compatible) on the left side. • 2. Transfer 13.6 μL of 10 mM compound into column 1 of LDV plate (Labcyte). • 3. Fill column 2-11 and column 23 of MDR plate with 9.30 μL of DMSO. • 4. Serial dilute 3.16 fold from column 1 to 2 by transferring 4.30 μL from column 1 to column 2, and so on to column 11. *Change tip in every dilution to prevent compound carryover effect! • 5. Seal the plate with Plate Sealer, then store the MDR plate at room temperature for short term storage and in −20° C. for long term storage.
• Cells are treated with 30 nL of each compound at 10 mM, half log dilution, 11 points with final concentration of 1000 nM or 833 nM, half log dilution, 11 points, in duplicates. Final DMSO concentration is 0.1%. • 1. Barcode the plates made on the left side and label the plates with silver marker. • 2. Dispense with the following scheme: • a. 30 nL of compound into corresponding wells in cell plates via Echo550 with “MDR32_HiBiT16_30 nL”. Top concentration will be 1000 nM. • 3. Seal the plate with Plate Sealer.
• Cells are dispensed at density specified in Cell Line Table in 384-well microplate. • 1. Culture cells to between 50-80% of confluence in sterile culture flasks of appropriate size. • 2. For Adherent Cell Lines: • a. Aspirate off growth media in culture flask, and wash off the Phenol Red media with 5 mL of 1×PBS. • b. Add 5 mL of Trypsin to the cells, incubate at 37° C. for 5 minutes. • c. Add 5 mL of growth media to the trypsinzed cells, and resuspend. • 3. Remove 10 μL of cells, and resuspend the cells with 10 μL of Trypan Blue. Insert the solution to counting chamber slide, and count the cells via cell counter. • 4. Adjust the cell concentration to specified plating density, and strain the cells with cell strainer. • 5. Dispense the cells via E1-ClipTip™ Electronic Multichannel Pipettes or Multidrop™ Combi Reagent Dispenser with Standard tube dispensing cassette: • a. Prime the cassette with 10-20 mL of ddH2O. • b. Prime the cassette with 10-20 mL of cells. • c. Dispense the cells at low speed for 30 μL/well in Corning® 384 Well Low Flange Black Flat Bottom Polystyrene TC-Treated Microplate. • d. Wash the cassette with 10-20 mL of ddH2O, follow by 10-20 mL of 70% EtOH, then again with 10-20 mL of ddH2O. • 6. Incubate the plates at 37° C.×compound treatment time.
• 1. If not already, bring Nano-Glo® HiBiT Lytic Buffer to room temperature. • 2. Determine the amount of reagent needed. A volume of reagent equal to the volume of media in the well should be added (i.e. 30 μL of cells will need 30 μL of HiBiT Lytic reagent). • 3. Into a given volume of buffer, dilute the substrate 50-fold and the LgBiT protein 100-fold. For example, to make 10 ml of reagent, add the following: • 10 ml Nano-Glo® HiBiT Lytic Buffer • 200 μl Nano-Glo® HiBiT Lytic Substrate • 100 μl LgBiT Protein • The reagent should be reconstituted immediately before use. However, once reconstituted, it should take about 4 hours for the activity to decrease 10%. • 4. Cool down the cell plate to room temperature for 10-15 minutes without lid. • 5. Dispense the HiBiT Lytic Reagent via E1-ClipTip™ Electronic Multichannel Pipettes or Multidrop™ Combi Reagent Dispenser with Standard tube dispensing cassette: • a. Prime the cassette with 10-20 mL of ddH2O. • b. Prime the cassette with 10-20 mL of CTG 2.0. • c. Dispense the HiBiT Lytic Reagent at medium speed for 30 μL/well in cell plate to column 1-23 (column 24 will be used as plate background). • d. Wash the cassette with 10-20 mL of ddH2O, follow by 10-20 mL of 70% EtOH, then again with 10-20 mL of ddH2O. • 6. Incubate the cell plate at room temperature for 10 minutes without lid. • 7. […]

Question: `COc1cc(-c2cn(C)c(=O)c3c2cnn3C)cc(OC)c1CNCC(=O)NCCCCCCCCCc1cccc2c1C(=O)N(C1CCC(=O)NC1=O)C2=O` (stereo not drawn) [Compound 208, 2-[[4-(1,6-dimethyl-7-oxo-pyrazolo[3,4-c]pyridin-4-yl)-2,6-dimethoxy-phenyl]methylamino]-N-[9-[2-(2,6-dioxo-3-piperidyl)-1,3-dioxo-isoindolin-4-yl]nonyl]acetamide] was tested. Which DC50 did it give?
Answer: < 100 nM

Question: Which DC50 does the source give for `COc1cc(-c2cn(C)c(=O)c3[nH]ncc23)cc(OC)c1CNCC(=O)NCCCCCNC(=O)CCc1ccc2c(c1)C(=O)N(C1CCC(=O)NC1=O)C2=O` (stereo not drawn) [Compound 207, N-[5-[[2-[[2,6-dimethoxy-4-(6-methyl-7-oxo-1H-pyrazolo[3,4-c]pyridin-4 yl)phenyl]methylamino]acetyl]amino]pentyl]-3-[2-(2,6-dioxo-3-piperidyl)-1,3-dioxo-isoindolin-5-yl]propanamide] here?
Answer: < 100 nM

Question: How did the DC50 turn out when `COc1cc(-c2cn(C)c(=O)c3c2ccn3C)cc(OC)c1CN(C)CC(=O)NCCCCCCCCNC(=O)c1ccc(=O)n(C2CCC(=O)NC2=O)c1` (stereo not drawn) [Compound 218, N-[8-[[2-[[4-(1,6-dimethyl-7-oxo-pyrrolo[2,3-c]pyridin-4-yl)-2,6-dimethoxy-phenyl]methyl-methyl-amino]acetyl]amino]octyl]-1-(2,6-dioxo-3-piperidyl)-6-oxo-pyridine-3-carboxamide] was run?
Answer: < 1000 nM

Question: For `COc1cc(-c2cn(C)c(=O)c3cnccc23)cc(F)c1CN(C)CC(=O)NCCCCCCCCNc1cccc2c1C(=O)N(C1CCC(=O)NC1=O)C2=O` (stereo not drawn) [Compound 222, N-[8-[[2-(2,6-dioxo-3-piperidyl)-1,3-dioxo-isoindolin-4-yl]amino]octyl]-2-[[2-fluoro-6-methoxy-4-(2-methyl-1-oxo-2,7-naphthyridin-4-yl)phenyl]methyl-methyl-amino]acetamide], which DC50 is on record?
Answer: < 100 nM

Question: `COc1cc(-c2cn(C)c(=O)c3[nH]ncc23)cc(OC)c1CN(C)CC(=O)NCCCCCCCCNc1cccc2c1C(=O)N(C1CCC(=O)NC1=O)C2=O` (stereo not drawn) [Compound 201, 2-[[2,6-dimethoxy-4-(6-methyl-7-oxo-1H-pyrazolo[3,4-c]pyridin-4-yl)phenyl]methyl-methyl-amino]-N-[8-[[2-(2,6-dioxo-3-piperidyl)-1,3-dioxo-isoindolin-4-yl]amino]octyl]acetamide] was tested. Which DC50 did it give?
Answer: < 100 nM

Question: With `COc1cc(-c2cn(C)c(=O)c3[nH]ncc23)cc(OC)c1CNCC(=O)NCCCCCCCCCc1ccc2c(c1)C(=O)N(C1CCC(=O)NC1=O)C2=O` (stereo not drawn) [Compound 202, 2-[[2,6-dimethoxy-4-(6-methyl-7-oxo-1H-pyrazolo[3,4-c]pyridin-4-yl)phenyl]methylamino]-N-[9-[2-(2,6-dioxo-3-piperidyl)-1,3-dioxo-isoindolin-5-yl]nonyl]acetamide] as the molecule, how does the DC50 read?
Answer: < 100 nM

Question: `COc1cc(-c2cn(C)c(=O)c3cnccc23)cc(OC)c1COCC(=O)NCCCCCCCCNc1cccc2c1C(=O)N(C1CCC(=O)NC1=O)C2=O` (stereo not drawn) [Compound 223, 2-[[2,6-dimethoxy-4-(2-methyl-1-oxo-2,7-naphthyridin-4-yl)phenyl]methoxy]-N-[8-[[2-(2,6-dioxo-3-piperidyl)-1,3-dioxo-isoindolin-4-yl]amino]octyl]acetamide] was tested. Which DC50 did it give?
Answer: < 100 nM

Question: For `COc1cc(-c2cn(C)c(=O)c3c2cnn3C)cc(OC)c1CNCC(=O)NCCCCCCCCCc1ccc2c(c1)C(=O)N(C1CCC(=O)NC1=O)C2=O` (stereo not drawn) [Compound 206], which DC50 is on record?
Answer: < 100 nM

Question: With `COc1cc(-c2cn(C)c(=O)c3cnccc23)cc(OC)c1C(C)N(C)CC(=O)NCCCCCCCCNc1cccc2c1C(=O)N(C1CCC(=O)NC1=O)C2=O` (stereo not drawn) [Compound 224, 2-[1-[2,6-dimethoxy-4-(2-methyl-1-oxo-2,7-naphthyridin-4-yl)phenyl]ethyl-methyl-amino]-N-[8-[[2-(2,6-dioxo-3-piperidyl)-1,3-dioxo-isoindolin-4-yl]amino]octyl]acetamide] as the molecule, how does the DC50 read?
Answer: < 100 nM

Question: For `COc1cc(-c2cn(C)c(=O)c3c2cnn3C)cc(OC)c1CN(C)CC(=O)NCCCCCCCCNc1cccc2c1C(=O)N(C1CCC(=O)NC1=O)C2=O` (stereo not drawn) [Compound 200, 2-[[4-(1,6-dimethyl-7-oxo-pyrazolo[3,4-c]pyridin-4-yl)-2,6-dimethoxy-phenyl]methyl-methyl-amino]-N-[8-[[2-(2,6-dioxo-3-piperidyl)-1,3-dioxo-isoindolin-4-yl]amino]octyl]acetamide], which DC50 is on record?
Answer: < 100 nM

Question: `COc1cc(-c2cn(C)c(=O)c3c2ccn3C)cc(OC)c1CN(C)CC(=O)NCCCCCCCCNc1cccc2c1CN(C1CCC(=O)NC1=O)C2=O` (stereo not drawn) [Compound 220, 2-[[4-(1,6-dimethyl-7-oxo-pyrrolo[2,3-c]pyridin-4-yl)-2,6-dimethoxy-phenyl]methyl-methyl-amino]-N-[8-[[2-(2,6-dioxo-3-piperidyl)-1-oxo-isoindolin-4-yl]amino]octyl]acetamide] was tested. Which DC50 did it give?
Answer: < 100 nM

Question: Which DC50 does the source give for `COc1cc(-c2cn(C)c(=O)c3[nH]ncc23)cc(OC)c1CNCC(=O)NCCCCCCCCCc1cccc2c1C(=O)N(C1CCC(=O)NC1=O)C2=O` (stereo not drawn) [Compound 204, 2-[[2,6-dimethoxy-4-(6-methyl-7-oxo-1H-pyrazolo[3,4-c]pyridin-4-yl)phenyl]methylamino]-N-[9-[2-(2,6-dioxo-3-piperidyl)-1,3-dioxo-isoindolin-4-yl]nonyl]acetamide] here?
Answer: < 100 nM

Question: For `COc1cc(-c2cn(C)c(=O)c3c2ccn3C)cc(OC)c1CN(C)CC(=O)NCCCCCCCCNc1cccc2c1C(=O)N(C1CCC(=O)NC1=O)C2=O` (stereo not drawn) [Compound 209, 2-[[4-(1,6-dimethyl-7-oxo-pyrrolo[2,3-c]pyridin-4-yl)-2,6-dimethoxy-phenyl]methyl-methyl-amino]-N-[8-[[2-(2,6-dioxo-3-piperidyl)-1,3-dioxo-isoindolin-4-yl]amino]octyl]acetamide], which DC50 is on record?
Answer: < 100 nM

Question: For `COc1cc(-c2cn(C)c(=O)c3cnccc23)cc(OC)c1CNCC(=O)NCCCCCCCCNc1cccc2c1C(=O)N(C1CCC(=O)NC1=O)C2=O` (stereo not drawn) [Compound 221, 2-[[2,6-dimethoxy-4-(2-methyl-1-oxo-2,7-naphthyridin-4-yl)phenyl]methylamino]-N-[8-[[2-(2,6-dioxo-3-piperidyl)-1,3-dioxo-isoindolin-4-yl]amino]octyl]acetamide], which DC50 is on record?
Answer: < 100 nM

Question: How did the DC50 turn out when `COc1cc(-c2cn(C)c(=O)c(C)n2)cc(OC)c1CN(C)CC(=O)NCCCCCCCCNc1cccc2c1C(=O)N(C1CCC(=O)NC1=O)C2=O` (stereo not drawn) [Compound 225, 2-((4-(4,6-dimethyl-5-oxo-4,5-dihydropyrazin-2-yl)-2,6-dimethoxybenzyl)(methyl)amino)-N-(8-((2-(2,6-dioxopiperidin-3-yl)-1,3-dioxoisoindolin-4-yl)amino)octyl)acetamide] was run?
Answer: < 100 nM
